Active and inactive are the calls of the source. No cut-off for these calls is given here.
Columns and labels:
THP-1 [1] = experiment: Increase in NF-kappaB-mediated TLR2 protein expression in human THP1 cells at 0.5 ug/ml after 6 hrs by Western blot analysis; type: cell-based
Aspergillus fumigatus [2] = experiment: Antifungal activity against Aspergillus fumigatus AF4215 hyphae co-incubated with monocytes assessed as hyphal damage at 0.1 ug/ml after 6 hrs by XTT assay; type: functional, organism-based
Aspergillus fumigatus [3] = experiment: Antifungal activity against Aspergillus fumigatus AF4215 hyphae assessed as hyphal damage at 0.1 ug/ml after 20 hrs by XTT assay; type: functional, organism-based
THP-1 [4] = experiment: Increase in NF-kappaB-mediated TLR2 mRNA expression in human THP1 cells at 0.5 ug/ml after 6 hrs by RT-PCR analysis; type: cell-based
THP-1 [5] = experiment: Increase in NF-kappaB-mediated TNF-alpha mRNA expression in human THP1 cells at 0.5 ug/ml after 6 hrs by RT-PCR analysis; type: cell-based
THP-1 [6] = experiment: Effect on TLR4 mRNA expression in human THP1 cells at 0.5 ug/ml after 6 hrs by RT-PCR analysis; type: functional, cell-based
THP-1 [7] = experiment: Increase in NF-kappaB-mediated TLR2 mRNA expression in human THP1 cells co-incubated with Aspergillus fumigatus hyphae at 0.5 ug/ml after 6 hrs by RT-PCR analysis; type: cell-based
Aspergillus fumigatus [8] = experiment: Antifungal activity against Aspergillus fumigatus AF4215 hyphae co-incubated with human monocytes assessed as hyphal damage at 0.1 ug/ml after 20 hrs by XTT assay; type: functional, organism-based
THP-1 [9] = experiment: Effect on TLR4 mRNA expression in human THP1 cells co-incubated with Aspergillus fumigatus hyphae at 0.5 ug/ml after 6 hrs by RT-PCR analysis; type: functional, cell-based
THP-1 [10] = experiment: Effect on TLR4 protein expression in human THP1 cells co-incubated with Aspergillus fumigatus hyphae at 0.5 ug/ml after 6 hrs by Western blot analysis; type: functional, cell-based
THP-1 [11] = experiment: Increase in NF-kappaB-mediated TLR2 protein expression in human THP1 cells co-incubated with Aspergillus fumigatus hyphae at 0.5 ug/ml after 6 hrs by Western blot analysis; type: cell-based
THP-1 [12] = experiment: Effect on TLR4 protein expression in human THP1 cells at 0.5 ug/ml after 6 hrs by Western blot analysis; type: functional, cell-based
Aspergillus fumigatus [13] = experiment: Antifungal activity against Aspergillus fumigatus AF4215 hyphae co-incubated with human THP1 cells assessed as hyphal damage at 0.1 ug/ml after 6 hrs by XTT assay; type: functional, organism-based; conditions: THP-1
THP-1 [14] = experiment: Increase in NF-kappaB-mediated TNF-alpha mRNA expression in human THP1 cells co-incubated with Aspergillus fumigatus hyphae at 0.5 ug/ml after 6 hrs by RT-PCR analysis; type: cell-based

With C[C@@H](c1ncncc1F)[C@](O)(Cn1cncn1)c1ccc(F)cc1F as the molecule, how does the Activity (THP-1 [1]) read?
Its Activity is “Active”.

What about the Activity (Aspergillus fumigatus [2]) of the same molecule?
The Activity was “Active”.

And the Activity (Aspergillus fumigatus [3])?
The Activity was “Active”.

What about the Activity (THP-1 [4]) of the same molecule?
Its Activity is “Active”.

And the Activity (THP-1 [5])?
Its Activity is “Active”.

What about the Activity (THP-1 [6]) of the same molecule?
The Activity was “inactive”.

And the Activity (THP-1 [7])?
The Activity was “Active”.

And the Activity (Aspergillus fumigatus [8])?
Its Activity is “Active”.

And the Activity (THP-1 [9])?
Its Activity is “inactive”.

What about the Activity (THP-1 [10]) of the same molecule?
Its Activity is “inactive”.

And the Activity (THP-1 [11])?
The Activity was “Active”.

And the Activity (THP-1 [12])?
Its Activity is “inactive”.

And the Activity (Aspergillus fumigatus [13])?
The Activity was “Active”.

What about the Activity (THP-1 [14]) of the same molecule?
Its Activity is “Active”.
